# Reference: article PMC7265491, “Inhibition of LIPG phospholipase activity suppresses tumor formation of human basal-like triple-negative breast cancer” (Scientific Reports, 2020)
# Molecular target: T1, LIPG (endothelial lipase) (Homo sapiens, UniProt Q9Y5X9)
# T1 construct: LIPG overexpressed in MDA-MB-468 cells
# T1 sequence (Q9Y5X9 21-500): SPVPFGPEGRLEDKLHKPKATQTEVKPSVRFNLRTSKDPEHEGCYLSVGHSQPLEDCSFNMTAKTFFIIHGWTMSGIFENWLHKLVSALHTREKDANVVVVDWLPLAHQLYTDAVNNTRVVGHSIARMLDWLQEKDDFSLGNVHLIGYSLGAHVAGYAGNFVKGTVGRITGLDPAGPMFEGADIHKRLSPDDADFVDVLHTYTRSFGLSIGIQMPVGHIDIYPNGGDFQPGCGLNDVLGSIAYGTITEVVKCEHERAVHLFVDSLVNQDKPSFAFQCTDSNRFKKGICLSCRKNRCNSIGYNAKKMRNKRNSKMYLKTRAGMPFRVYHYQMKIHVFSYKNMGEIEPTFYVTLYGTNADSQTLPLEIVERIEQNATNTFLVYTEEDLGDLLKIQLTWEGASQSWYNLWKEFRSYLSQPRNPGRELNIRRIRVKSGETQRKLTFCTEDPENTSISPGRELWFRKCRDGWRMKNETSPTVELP
# Experiment: cell-based fluorogenic phospholipase A1 assay (PED-A1 substrate) with LIPG-overexpressing MDA-MB-468 cells, parental-cell background subtracted
smiles,measurement,value
O=C(O)c1cc(C(F)(F)F)ccc1N1CC[C@H](OCc2ccccn2)C1 [XEN445],IC50,2.17 µM
